Results on 6 molecules are retold here after patent US4652638A, “3-O-acyl-4"-deoxydesmycosin derivatives” (Toyo Jozo Kabushiki Kaisha, priority 1983, dated 1987).

SMILES strings stand for the structures. In brackets after ≈: the same amount, converted by molar mass. Like-named read-outs stand apart in the source and are kept apart here.

As a reminder, the MIC is the lowest concentration that inhibits growth of the organism.

Holding throughout (assay): MIC (minimum inhibitory concentration)
Common to all, as to type: cell-based

Experiment [1] deals with Bacillus subtilis ATCC 6633. As to conditions: ATCC6633; Bacillus subtilis ATCC 6633; read-out: MIC.
Experiment [2] concerns Proteus vulgaris OX19. Conditions: read-out: MIC.
Experiment [3] deals with Streptococcus faecalis 1501. Conditions: Enterococcus faecalis; Streptococcus faecalis 1501; read-out: MIC.
Experiment [4] has as its system Escherichia coli B. As to conditions: Escherichia coli B; read-out: MIC.
Experiment [5] relates to Serratia marcescens. Conditions: read-out: MIC.
In experiment [6] the test system is Staphylococcus aureus ATCC 6538P. As to conditions: ATCC6538P.
Experiment [7] relates to Micrococcus flavus ATCC 10240. As to conditions: ATCC10240; Micrococcus flavus ATCC 10240; read-out: MIC.
For experiment [8], the system named is Escherichia coli NIHJ-JC2. Conditions: NIHJJC2; Escherichia coli NIHJ-JC2; read-out: MIC.
Experiment [9] has as its system Staphylococcus epidermidis sp-al-1. Conditions: SPAL1; Staphylococcus epidermidis sp-al-1; read-out: MIC.
Experiment [10] concerns Pseudomonas aeruginosa IAM 1095. As to conditions: IAM1095; Pseudomonas aeruginosa IAM 1095; read-out: MIC.
For experiment [11], the system named is Staphylococcus aureus 0119*.
Experiment [12] relates to Shigella sonnei E33.
In experiment [13] the test system is Salmonella typhosa H901. As to conditions: Salmonella enterica, TYPHOSA.
For experiment [14], the system named is Staphylococcus aureus MS353 C36. As to conditions: MS353C36.
Experiment [15] relates to Staphylococcus aureus MS353.
In experiment [16] the test system is Staphylococcus aureus MS353 A0*. As to conditions: * clinical isolate, macrolide-resistant bacteria A group.
The subject of experiment [17] is Shigella flexineri type 3a. Conditions: TYPE3A.
For experiment [18], the system named is Salmonella enteritidis Gaertner. As to conditions: Salmonella enterica; Salmonella enteritidis Gaertner; read-out: MIC.
Experiment [19] relates to Klebsiella pneumoniae ATCC 10031. Conditions: ATCC10031; Klebsiella pneumoniae ATCC 10031; read-out: MIC.
The subject of experiment [20] is Streptococcus agalaactiae 1020. Conditions: Streptococcus agalaactiae 1020; read-out: MIC.
In experiment [21] the test system is Streptococcus pyogenes 1022*.
The test system of experiment [22] is Staphylococcus aureus 0127*. As to conditions: Staphylococcus aureus.
Experiment [23] concerns Streptococcus pyogenes N.Y.5.
For experiment [24], the system named is Sarcina lutea ATCC 9341. Conditions: Micrococcus luteus, ATCC9341; Sarcina lutea ATCC 9341; read-out: MIC.
Where [25] appears, read: Streptococcus pyogenes 1022, * clinical isolate, macrolide-resistant bacteria A group, read-out: MIC.

For the molecule `CCC1OC(=O)CC(OC(C)=O)C(C)C(OC2OC(C)C(O)C(N(C)C)C2O)C(CC=O)CC(C)C(=O)C=CC(C)=CC1COC1OC(C)CC(OC)C1OC` (stereo not drawn) [Example 1, 3-O-acetyl-4"-deoxydesmycosin], the MIC in experiment [1] is 0.2 µg/mL (≈ 0.251 µM); in experiment [2], 25 µg/mL (≈ 31.3 µM); in [3], 0.8 µg/mL (≈ 1 µM); in experiment [4], greater than 100 µg/mL; in experiment [5], greater than 100 µg/mL; in [6], 0.4 µg/mL (≈ 0.501 µM). Besides, the MIC in experiment [7] was no more than 0.05 µg/mL; in experiment [8] it was greater than 100 µg/mL; in [9], 0.1 µg/mL (≈ 0.125 µM); in experiment [10], greater than 100 µg/mL; in experiment [11] (Staphylococcus aureus), 100 µg/mL (≈ 125 µM); in [12], greater than 100 µg/mL. Besides, the MIC in [13] is greater than 100 µg/mL; in experiment [14], 0.2 µg/mL (≈ 0.251 µM); in experiment [15], 0.2 µg/mL (≈ 0.251 µM); in experiment [16] it was greater than 100 µg/mL; in experiment [17], 50 µg/mL (≈ 62.7 µM); in experiment [18], greater than 100 µg/mL. Moreover, the MIC is 25 µg/mL (≈ 31.3 µM) in experiment [19]; 0.1 µg/mL (≈ 0.125 µM) in experiment [20]; 50 µg/mL (≈ 62.7 µM) in experiment [21] (setting [25]); greater than 100 µg/mL in experiment [22]; no more than 0.05 µg/mL in experiment [23]; no more than 0.05 µg/mL in [24].
Take `CCC1OC(=O)CC(OC(=O)c2ccccc2)C(C)C(OC2OC(C)C(O)C(N(C)C)C2O)C(CC=O)CC(C)C(=O)C=CC(C)=CC1COC1OC(C)CC(OC)C1OC` (stereo not drawn) [Example 5, 3-O-benzoyl-4"-deoxydesmycosin]: the minimal inhibitory concentration (MIC) in experiment [1] was 0.1 µg/mL (≈ 0.116 µM); in experiment [2], 50 µg/mL (≈ 58.1 µM); in experiment [3], 1.6 µg/mL (≈ 1.86 µM); in [4], greater than 100 µg/mL; in [5], greater than 100 µg/mL; in experiment [6] it was 0.2 µg/mL (≈ 0.233 µM). Also, the minimal inhibitory concentration (MIC) in experiment [7] was no more than 0.05 µg/mL; in experiment [8], greater than 100 µg/mL; in experiment [9], 0.1 µg/mL (≈ 0.116 µM); in experiment [10], greater than 100 µg/mL; in experiment [11] (Staphylococcus aureus), greater than 100 µg/mL; in experiment [12], greater than 100 µg/mL. Moreover, the minimal inhibitory concentration (MIC) in experiment [13] was greater than 100 µg/mL; in experiment [14], 0.2 µg/mL (≈ 0.233 µM); in experiment [15] it was 0.2 µg/mL (≈ 0.233 µM); in experiment [16], 50 µg/mL (≈ 58.1 µM); in [17] it was 100 µg/mL (≈ 116 µM); in experiment [18], greater than 100 µg/mL. Moreover, the MIC in experiment [19] is 25 µg/mL (≈ 29.1 µM); in experiment [20] it was 0.2 µg/mL (≈ 0.233 µM); in experiment [21] (setting [25]), 25 µg/mL (≈ 29.1 µM); in experiment [22] it was greater than 100 µg/mL; in [23], no more than 0.05 µg/mL; in experiment [24] it was no more than 0.05 µg/mL.
With `CCC1OC(=O)CC(OC(=O)c2ccccc2)C(C)C(OC2OC(C)C(O)C(N(C)C)C2O)C(C)CC(C)C(=O)C=CC(C)=CC1COC1OC(C)CC(OC)C1OC` (stereo not drawn) [Example 9, 3-O-benzoyl-19-deformyl-4"-deoxydesmycosin], the MIC in [1] was 0.2 µg/mL (≈ 0.24 µM); in experiment [2], 100 µg/mL (≈ 120 µM); in experiment [3], 1.6 µg/mL (≈ 1.92 µM); in [4] it was greater than 100 µg/mL; in [5], greater than 100 µg/mL; in [6] it was 0.2 µg/mL (≈ 0.24 µM). The MIC in experiment [7] is no more than 0.05 µg/mL; in experiment [8], greater than 100 µg/mL; in [9], no more than 0.05 µg/mL; in [10], greater than 100 µg/mL; in experiment [11] (Staphylococcus aureus) it was greater than 100 µg/mL; in [12] it was greater than 100 µg/mL. Besides, the MIC in experiment [13] is greater than 100 µg/mL; in [14], 0.1 µg/mL (≈ 0.12 µM); in experiment [15], 0.2 µg/mL (≈ 0.24 µM); in experiment [16], greater than 100 µg/mL; in experiment [17], greater than 100 µg/mL; in experiment [18], greater than 100 µg/mL. The MIC was 25 µg/mL (≈ 30 µM) in [19]; 0.2 µg/mL (≈ 0.24 µM) in [20]; greater than 100 µg/mL in experiment [21] (Streptococcus pyogenes); greater than 100 µg/mL in [22]; no more than 0.05 µg/mL in [23]; no more than 0.05 µg/mL in experiment [24].
For `CCC(=O)OC1CC(=O)OC(CC)C(COC2OC(C)CC(OC)C2OC)C=C(C)C=CC(=O)C(C)CC(C)C(OC2OC(C)C(O)C(N(C)C)C2O)C1C` (stereo not drawn) [Example 8, 3-O-propionyl-19-deformyl-4"-deoxydesmycosin], the MIC in experiment [1] is 0.1 µg/mL (≈ 0.128 µM); in experiment [2], 100 µg/mL (≈ 128 µM); in experiment [3], 3.1 µg/mL (≈ 3.95 µM); in experiment [4] it was 100 µg/mL (≈ 128 µM); in [5], greater than 100 µg/mL; in [6], 0.4 µg/mL (≈ 0.51 µM). For the same molecule, the MIC in experiment [7] is no more than 0.05 µg/mL; in [8], greater than 100 µg/mL; in [9] it was 0.1 µg/mL (≈ 0.128 µM); in experiment [10] it was greater than 100 µg/mL; in [11] (Staphylococcus aureus) it was greater than 100 µg/mL; in experiment [12], greater than 100 µg/mL. Also, the MIC is greater than 100 µg/mL in [13]; 0.2 µg/mL (≈ 0.255 µM) in [14]; 0.4 µg/mL (≈ 0.51 µM) in experiment [15]; greater than 100 µg/mL in experiment [16]; 100 µg/mL (≈ 128 µM) in [17]; greater than 100 µg/mL in experiment [18]. The MIC in [19] is 12.5 µg/mL (≈ 15.9 µM); in experiment [20], 0.4 µg/mL (≈ 0.51 µM); in [21] (Streptococcus pyogenes), greater than 100 µg/mL; in [22], greater than 100 µg/mL; in [23], 0.1 µg/mL (≈ 0.128 µM); in experiment [24], no more than 0.05 µg/mL.
As for `CCC1OC(=O)CC(OC(C)=O)C(C)C(OC2OC(C)C(O)C(N(C)C)C2O)C(C)CC(C)C(=O)C=CC(C)=CC1COC1OC(C)CC(OC)C1OC` (stereo not drawn) [Example 7, 3-O-acetyl-19-deformyl-4"-deoxydesmycosin], the MIC in [1] is 0.1 µg/mL (≈ 0.13 µM); in [2], 100 µg/mL (≈ 130 µM); in experiment [3], 3.1 µg/mL (≈ 4.03 µM); in experiment [4], greater than 100 µg/mL; in experiment [5], greater than 100 µg/mL; in experiment [6], 0.4 µg/mL (≈ 0.52 µM). The MIC in experiment [7] is no more than 0.05 µg/mL; in experiment [8], greater than 100 µg/mL; in experiment [9], 0.1 µg/mL (≈ 0.13 µM); in experiment [10] it was greater than 100 µg/mL; in experiment [11] (Staphylococcus aureus) it was greater than 100 µg/mL; in [12], greater than 100 µg/mL. Besides, the minimal inhibitory concentration (MIC) in experiment [13] was greater than 100 µg/mL; in experiment [14], 0.2 µg/mL (≈ 0.26 µM); in [15] it was 0.2 µg/mL (≈ 0.26 µM); in experiment [16], greater than 100 µg/mL; in experiment [17], greater than 100 µg/mL; in experiment [18] it was greater than 100 µg/mL. Besides, the MIC in experiment [19] is 25 µg/mL (≈ 32.5 µM); in experiment [20], 0.8 µg/mL (≈ 1.04 µM); in [21] (Streptococcus pyogenes), greater than 100 µg/mL; in experiment [22] it was greater than 100 µg/mL; in experiment [23] it was 0.1 µg/mL (≈ 0.13 µM); in [24], no more than 0.05 µg/mL.
As to `CCC(=O)OC1CC(=O)OC(CC)C(COC2OC(C)CC(OC)C2OC)C=C(C)C=CC(=O)C(C)CC(CC=O)C(OC2OC(C)C(O)C(N(C)C)C2O)C1C` (stereo not drawn) [Example 2, 3-O-propionyl-4"-deoxydesmycosin], the MIC in experiment [1] is 0.1 µg/mL (≈ 0.123 µM); in experiment [2] it was 50 µg/mL (≈ 61.6 µM); in [3] it was 0.4 µg/mL (≈ 0.493 µM); in [4] it was 100 µg/mL (≈ 123 µM); in experiment [5], greater than 100 µg/mL; in experiment [6], 0.4 µg/mL (≈ 0.493 µM). Moreover, the MIC in experiment [7] was no more than 0.05 µg/mL; in experiment [8] it was greater than 100 µg/mL; in experiment [9] it was no more than 0.05 µg/mL; in [10], 50 µg/mL (≈ 61.6 µM); in [11] (Staphylococcus aureus 0119, * clinical isolate, macrolide-resistant bacteria A group, read-out: MIC), 25 µg/mL (≈ 30.8 µM); in experiment [12], greater than 100 µg/mL. The MIC was greater than 100 µg/mL in experiment [13]; 0.2 µg/mL (≈ 0.246 µM) in experiment [14]; 0.2 µg/mL (≈ 0.246 µM) in experiment [15]; 12.5 µg/mL (≈ 15.4 µM) in experiment [16]; 50 µg/mL (≈ 61.6 µM) in experiment [17]; greater than 100 µg/mL in [18]. Also, the MIC in experiment [19] is 25 µg/mL (≈ 30.8 µM); in experiment [20] it was 0.1 µg/mL (≈ 0.123 µM); in experiment [21] (Streptococcus pyogenes) it was 12.5 µg/mL (≈ 15.4 µM); in experiment [22], 12.5 µg/mL (≈ 15.4 µM); in [23], no more than 0.05 µg/mL; in experiment [24], no more than 0.05 µg/mL.
